Legend:
Type in all cases: in vivo, mouse
[1] = Tissue distribution of Compound 1 in brain and liver after oral administration in food; conditions: Gba1^D409V/D409V mice
Method: Gba1^D409V/D409V mice (harboring a point mutation at residue 409 in the murine Gba1 gene) were bred under a protocol approved by the Institutional Animal Care and Use Committee. Treatments were administered as described and the animals were humanely sacrificed at pre-determined time points or upon reaching a humane endpoint.
A subset of Gba1^D409V/D409V mice received Compound 1 administered in food using a formulation calculated to provide 60 mg/kg/day. Drug administration was initiated when pups were weaned at 4 weeks of age and continued until euthanasia at 4 or 10 months of age. The concentration of Compound 1 in brain and liver tissues was determined by mass spectrometry (see e.g. Ramanathan et al. “The emergence of high-resolution MS as the premier analytical tool in the pharmaceutical bioanalysis arena” Bioanalysis. March 2012; 4(5):467-469).

[2] = system: symptomatic Gba1^D409V/D409V mice; assay: NOR test in post-symptomatic Gba1^D409V/D409V mice; conditions: treatment from approximately 6 months of age, tested at 12 months, n=13, p<0.05; FIG. 16
Method: Gba1^D409V/D409V mice were bred and treated according to Example 24. Mice were fed the control diet or the Compound 1 diet as described in Example 24, except that drug administration was initiated when animals were approximately 6 months of age, and continued until euthanasia at 13 months of age.
Hippocampal memory was evaluated with the NOR test according to Example 25, except that the mice were tested at 6 months of age (before treatment) and again 6 months later, at 12 months of age (after treatment).

[3] = system: mice overexpressing A53T α-synuclein; assay: Novel object recognition (NOR) test in A53T mice; conditions: A53T mice dosed from 6 weeks of age, tested at 4.5 months; FIG. 3
Gba1^D409V/D409V mice [4] = assay: Novel object recognition (NOR) test in Gba1^D409V/D409V mice; conditions: 60 mg/kg/day in food from 4 weeks of age, tested at 3 months; FIG. 1
Method: (§1) Gba1^D409V/D409V mice were bred and treated according to Example 24.
(§2) Mice were fed the control diet or the Compound 1 diet as described in Example 24.
In the NOR test, […] wild type (WT) and Gba1^D409V/D409V mice were dosed with Compound 1 starting at 4 weeks of age and were subjected to the NOR test at 3 months (2 months post-treatment).
Mice were individually habituated to explore an open-field box for 5 minutes. During the first training session (T1), two identical objects were symmetrically placed into the open field 14 inches from each other. Animals were allowed to explore for 5 minutes. The number of investigations was recorded by a blinded investigator. After a 24 hour retention period, animals were tested (T2) for their recognition of a novel object. Mice were placed back into the open-field box for 5 minutes, and the time spent investigating the familiar and novel objects was recorded.
Statistical analyses were performed by Student's t-test or analysis of variance (ANOVA) followed by Newman-Keuls' post-hoc test. Preference for novelty was defined as investigating the novel object more than 50% of the time by a one-sample t-test. All statistical analyses were performed with GraphPad Prism v4.0 (GraphPad Software, San Diego, Calif.). Values of p<0.05 were considered significant.

human A53T-α-synuclein = assay: Subcellular localization of α-synuclein in cortical tissue homogenates of A53T mice (serial fractionation, ELISA); conditions: cortex, 8 months of age
protein tau aggregates = assay: Hippocampal quantification of protein tau aggregates in A53T mice; conditions: 8 months of age, FIG. 14
Method: For histological analysis, mice were perfused with cold PBS. Brains were removed and post-fixed in 10% (v/v) neutral buffered formalin for 48 hours. Tissues were then placed in 30% sucrose, embedded and sectioned at 20 μm in a cryostat. Some tissues were pretreated with proteinase K (1:4 dilution; DAKO, Carpinteria, Calif.) for 7 minutes at room temperature to expose α-synuclein and other aggregated proteins. […] For α-synuclein aggregate quantification, a cyanine 3-tyramide signal amplification kit was used (PerkinElmer, Waltham, Mass.). […]
For morphometric analysis, sections were imaged with a SPOT camera (Diagnostic Instruments, Sterling Heights, Mich.) paired with a Nikon Eclipse E800 fluorescence microscope equipped with a 20λ objective lens. […] For ubiquitin and tau quantification, the same threshold was used for all images such that the aggregates were positively counted and the threshold area was recorded for each image in pixels. For α-synuclein quantification, each image was analyzed individually using a range of threshold values to quantify the area of the aggregates accurately and eliminate variable background signals. […] The percent threshold area was calculated and expressed as mean±SEM. […]

[5] = system: mice overexpressing A53T α-synuclein; assay: Fear conditioning (FC) tests in A53T mice; conditions: eight months of age
Gba1^D409V/D409V mice [6] = assay: Fear conditioning (FC) tests in Gba1^D409V/D409V mice; conditions: ten month-old mice, 60 mg/kg/day in food
Source text: as §1, §2
Ten month-old wild type (WT) and Gba1^D409V/D409V mice were subjected to FC memory tests. For the FC tests, mice were trained in four of the Med Associates® Near Infrared Fear Conditioning System chambers (St. Albans, Vt.). Mice were placed in the contextual fear chamber in “Context A,” which consists of lighting, a neutral background and a stainless steel grid floor. The mice were trained with a 3-trial delay-cued protocol as defined below. The mice were first given 2 minutes to explore the chamber in Context A before a conditioned stimulus (CS) of a 2000 Hz cue was given. Thirty seconds later a one second unconditioned stimulus (US) of 0.6 mA foot shock was applied. With an inter-trial interval (ITI) of 30 sec, this US-CS response was repeated three times. After a 24 hour retention period, mice were brought back to the testing room and habituated to the room for 1 hour. The mice were again placed in Context A for 5 minutes and freezing to the context was recorded. Freezing (defined as the lack of movement, except for respiration) was recorded using a near-infrared camera system. […] Again, freezing to the novel environment and the cue were assessed with the near infrared camera system. […]

[7] = system: protein aggregates (ubiquitin, α-synuclein and/or protein tau); assay: Protein aggregation in brains of post-symptomatic Gba1^D409V/D409V mice (Example 33); conditions: administration initiated after symptoms of cognitive impairment, approximately 6 months of age
Method: Wild-type (WT) and Gba1^D409V/D409V mice are bred and treated substantially as described in Example 27, except that drug administration is initiated when animals are symptomatic for cognitive impairment, e.g. at approximately 6 months of age.
The accumulation of proteins (ubiquitin, α-synuclein and protein tau) is determined by hippocampal quantification and protein immunoreactivity substantially as described in Example 27.

Gba1^D409V/D409V mice [8] = assay: NOR and FC tests in Gba1^D409V/D409V mice with Compound 2 (Example 34); conditions: diet containing Compound 2
Method: Gba1^D409V/D409V mice are bred and treated substantially as described in Example 24. Mice are fed a control diet or a diet containing a quinuclidine compound substantially as described in Example 25, except that the compound administered is Compound 2.
The NOR test and the FC test are performed substantially as described in Example 25.

[9] = system: protein aggregates (ubiquitin, α-synuclein and/or protein tau); assay: Protein aggregation in brains of Gba1^D409V/D409V mice with Compound 2 (Example 35); conditions: diet containing Compound 2
Method: Wild-type (WT) and Gba1^D409V/D409V mice are fed the control diet or a diet containing a quinuclidine compound substantially as described in Example 27, except that the compound administered is Compound 2.
The accumulation of proteins (ubiquitin, α-synuclein and protein tau) is determined by hippocampal quantification and protein immuoreactivity as described in Example 27.

[10] = in food, 60 mg/kg/day, mass spectrometry

SMILES | concentration in the brain as percentage of the concentration in the liver ([1]; in food, 60 mg/kg/day) | tissue exposure in the cortex [1, 10] [ng/g tissue] | tissue exposure in the liver [1, 10] [ng/g tissue] | blood-brain barrier penetration ([1]; oral in food) | NOR test, investigation of novel object during testing trial [2] | NOR test, target investigations of novel object during testing (T2) [3] | NOR test, target investigations of novel object during testing (T2) (Gba1^D409V/D409V mice [4]) | level of insoluble α-synuclein (human A53T-α-synuclein; SDS-soluble fraction, n=14, P<0.01, FIG. 11C) | level of cytosolic soluble α-synuclein (human A53T-α-synuclein; Tris-soluble fraction, n=14, P=0.17, FIG. 11A) | level of membrane-associated α-synuclein (human A53T-α-synuclein; Triton-soluble fraction, n=14, P<0.05, FIG. 11B) | level of protein tau aggregates in hippocampus (protein tau aggregates) | FC test, contextual memory (freezing responses) ([5]; FIG. 4A) | FC test, cued memory ([5]; FIG. 4B) | FC test, contextual memory (freezing responses) (Gba1^D409V/D409V mice [6]; FIG. 2A) | FC test, cued memory (Gba1^D409V/D409V mice [6]; FIG. 2B) | accumulation of protein aggregates (ubiquitin, α-synuclein and/or protein tau) in the brains [7] | memory deficit (NOR and FC tests) (Gba1^D409V/D409V mice [8]) | accumulation of protein aggregates (ubiquitin, α-synuclein and/or protein tau) in the brains [9]
CC(C)(NC(=O)OC1CN2CCC1CC2)c1cccc(-c2ccc(F)cc2)c1 (stereo not drawn) [Compound 1, 1-azabicyclo[2.2.2]oct-3-yl [2-(4′-fluorobiphenyl-3-yl)propan-2-yl]carbamate] | approximately 2% | 217±12 | 10512±603 | crosses the blood-brain barrier | recovered the ability to investigate the unfamiliar object | trend to reversal of their memory deficit | trend to reversal of their memory deficit | 81±3 % of the control value | 114±8 % of the control value | 75±8 % of the control value | significant reduction | improved the freezing responses | only a marginal effect | improved the freezing responses | no effect | measurable reduction | – | –
CC(C)(NC(=O)O[C@@H]1CN2CCC1CC2)c1csc(-c2ccc(F)cc2)n1 [Compound 2, (S)-quinuclidin-3-yl 2-(2-(4-fluorophenyl)thiazol-4-yl)propan-2-ylcarbamate] | – | – | – | – | – | – | – | – | – | – | – | – | – | – | – | – | improve memory deficit | measurable reduction
